According to article PMC9133015 (Nature Communications, 2022):
Where “and” joins values, the source holds several entries; their conditions need not be identical. Equal values may be shown once.

Columns and labels:
Test in all cases: Kinase inhibitor specificity profiling (Reaction Biology Corporation)
Type in all cases: biochemical
Parameters in all cases: % Enzyme Activity (relative to DMSO controls): concentration or dose not given beside the values
[1] = biological target: T1, panel of 370 protein kinases (Homo sapiens, UniProt Q6VAB6); details: 2 h, kinase KSR2; read-out: % Enzyme Activity (relative to DMSO controls)
T1 construct: purchased Reaction Biology Corporation (assay service)

[2] = biological target: T2, panel of 370 protein kinases (Homo sapiens, UniProt P42684); details: 2 h, kinase ABL2/ARG; read-out: % Enzyme Activity (relative to DMSO controls)
T2 construct: purchased Reaction Biology Corporation (assay service)

[3] = biological target: T3, panel of 370 protein kinases (Homo sapiens, UniProt Q15759); details: 2 h, kinase P38b/MAPK11; read-out: % Enzyme Activity (relative to DMSO controls)
T3 construct: purchased Reaction Biology Corporation (assay service)

[4] = biological target: T4, panel of 370 protein kinases (Homo sapiens, UniProt Q15303); details: 2 h, kinase ERBB4/HER4; read-out: % Enzyme Activity (relative to DMSO controls)
T4 construct: purchased Reaction Biology Corporation (assay service)

[5] = biological target: T5, panel of 370 protein kinases (Homo sapiens, UniProt Q32MK0); details: 2 h, kinase MYLK3; read-out: % Enzyme Activity (relative to DMSO controls)
T5 construct: purchased Reaction Biology Corporation (assay service)

[6] = biological target: T6, panel of 370 protein kinases (Homo sapiens, UniProt Q13153); details: 2 h, kinase PAK1; read-out: % Enzyme Activity (relative to DMSO controls)
T6 construct: purchased Reaction Biology Corporation (assay service)

[7] = biological target: T7, panel of 370 protein kinases (Homo sapiens, UniProt P23458); details: kinase JAK1
T7 construct: purchased Reaction Biology Corporation (assay service)
T7 sequence (P23458 whole entry): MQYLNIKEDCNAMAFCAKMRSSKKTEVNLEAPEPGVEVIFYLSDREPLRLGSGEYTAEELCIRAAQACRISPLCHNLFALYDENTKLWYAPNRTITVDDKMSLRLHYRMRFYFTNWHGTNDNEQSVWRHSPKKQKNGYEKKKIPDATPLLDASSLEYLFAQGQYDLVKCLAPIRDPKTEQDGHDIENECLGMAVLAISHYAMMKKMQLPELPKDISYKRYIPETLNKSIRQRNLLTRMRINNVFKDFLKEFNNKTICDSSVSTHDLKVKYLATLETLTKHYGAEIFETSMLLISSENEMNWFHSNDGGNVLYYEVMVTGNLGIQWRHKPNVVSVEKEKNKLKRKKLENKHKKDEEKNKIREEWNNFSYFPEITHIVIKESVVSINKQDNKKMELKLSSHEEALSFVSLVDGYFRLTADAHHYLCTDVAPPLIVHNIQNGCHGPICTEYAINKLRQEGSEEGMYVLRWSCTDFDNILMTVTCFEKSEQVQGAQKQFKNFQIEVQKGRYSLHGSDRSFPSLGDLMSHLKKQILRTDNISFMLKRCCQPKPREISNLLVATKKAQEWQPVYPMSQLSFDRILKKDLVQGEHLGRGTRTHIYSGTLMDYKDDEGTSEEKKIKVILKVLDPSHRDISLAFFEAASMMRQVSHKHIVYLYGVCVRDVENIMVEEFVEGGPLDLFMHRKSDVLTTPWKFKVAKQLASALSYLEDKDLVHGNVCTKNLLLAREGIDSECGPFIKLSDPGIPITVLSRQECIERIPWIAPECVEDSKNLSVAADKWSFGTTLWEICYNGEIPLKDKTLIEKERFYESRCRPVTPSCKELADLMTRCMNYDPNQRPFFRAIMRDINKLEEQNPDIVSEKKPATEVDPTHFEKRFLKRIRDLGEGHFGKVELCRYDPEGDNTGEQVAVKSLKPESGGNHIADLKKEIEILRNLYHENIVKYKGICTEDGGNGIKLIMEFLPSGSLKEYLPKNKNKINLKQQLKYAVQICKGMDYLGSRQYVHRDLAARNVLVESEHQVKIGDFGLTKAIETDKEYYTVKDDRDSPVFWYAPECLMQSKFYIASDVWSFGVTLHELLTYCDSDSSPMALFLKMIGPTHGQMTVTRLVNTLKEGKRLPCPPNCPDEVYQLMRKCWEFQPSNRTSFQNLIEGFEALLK

[8] = biological target: T8, panel of 370 protein kinases (Homo sapiens, UniProt P54760); details: 2 h, kinase EPHB4; read-out: % Enzyme Activity (relative to DMSO controls)
T8 construct: purchased Reaction Biology Corporation (assay service)

[9] = biological target: T9, panel of 370 protein kinases (Homo sapiens, UniProt P22694); details: 2 h, kinase PKAcb; read-out: % Enzyme Activity (relative to DMSO controls)
T9 construct: purchased Reaction Biology Corporation (assay service)

[10] = biological target: T10, panel of 370 protein kinases (Homo sapiens, UniProt Q5TCY1); details: 2 h, kinase TTBK1; read-out: % Enzyme Activity (relative to DMSO controls)
T10 construct: purchased Reaction Biology Corporation (assay service)

[11] = biological target: T11, panel of 370 protein kinases (Homo sapiens, UniProt Q9UF33); details: 2 h, kinase EPHA6; read-out: % Enzyme Activity (relative to DMSO controls)
T11 construct: purchased Reaction Biology Corporation (assay service)

[12] = biological target: T12, panel of 370 protein kinases (Homo sapiens, UniProt P21709); details: 2 h, kinase EPHA1; read-out: % Enzyme Activity (relative to DMSO controls)
T12 construct: purchased Reaction Biology Corporation (assay service)

[13] = biological target: T13, panel of 370 protein kinases (Homo sapiens, UniProt Q16512); details: 2 h, kinase PKN1/PRK1; read-out: % Enzyme Activity (relative to DMSO controls)
T13 construct: purchased Reaction Biology Corporation (assay service)

[14] = biological target: T14, panel of 370 protein kinases (Homo sapiens, UniProt Q06418); details: 2 h, kinase TYRO3/SKY; read-out: % Enzyme Activity (relative to DMSO controls)
T14 construct: purchased Reaction Biology Corporation (assay service)

[15] = biological target: T15, panel of 370 protein kinases (Homo sapiens, UniProt P53778); details: 2 h, kinase P38g; read-out: % Enzyme Activity (relative to DMSO controls)
T15 construct: purchased Reaction Biology Corporation (assay service)
T15 sequence (P53778 whole entry): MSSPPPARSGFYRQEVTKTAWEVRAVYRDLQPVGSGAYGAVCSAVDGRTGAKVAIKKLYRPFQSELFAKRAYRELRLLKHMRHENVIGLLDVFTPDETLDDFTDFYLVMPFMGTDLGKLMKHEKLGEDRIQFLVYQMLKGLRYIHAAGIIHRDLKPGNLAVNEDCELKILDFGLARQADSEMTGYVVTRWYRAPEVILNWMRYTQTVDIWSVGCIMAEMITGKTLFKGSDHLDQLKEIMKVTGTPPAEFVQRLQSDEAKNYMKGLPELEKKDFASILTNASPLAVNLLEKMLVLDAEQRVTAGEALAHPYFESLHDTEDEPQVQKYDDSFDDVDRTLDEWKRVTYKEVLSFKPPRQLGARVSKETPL

[16] = biological target: T16, panel of 370 protein kinases (Homo sapiens, UniProt Q9Y2K2); details: kinase SIK3
T16 construct: purchased Reaction Biology Corporation (assay service)
T16 sequence (Q9Y2K2 whole entry): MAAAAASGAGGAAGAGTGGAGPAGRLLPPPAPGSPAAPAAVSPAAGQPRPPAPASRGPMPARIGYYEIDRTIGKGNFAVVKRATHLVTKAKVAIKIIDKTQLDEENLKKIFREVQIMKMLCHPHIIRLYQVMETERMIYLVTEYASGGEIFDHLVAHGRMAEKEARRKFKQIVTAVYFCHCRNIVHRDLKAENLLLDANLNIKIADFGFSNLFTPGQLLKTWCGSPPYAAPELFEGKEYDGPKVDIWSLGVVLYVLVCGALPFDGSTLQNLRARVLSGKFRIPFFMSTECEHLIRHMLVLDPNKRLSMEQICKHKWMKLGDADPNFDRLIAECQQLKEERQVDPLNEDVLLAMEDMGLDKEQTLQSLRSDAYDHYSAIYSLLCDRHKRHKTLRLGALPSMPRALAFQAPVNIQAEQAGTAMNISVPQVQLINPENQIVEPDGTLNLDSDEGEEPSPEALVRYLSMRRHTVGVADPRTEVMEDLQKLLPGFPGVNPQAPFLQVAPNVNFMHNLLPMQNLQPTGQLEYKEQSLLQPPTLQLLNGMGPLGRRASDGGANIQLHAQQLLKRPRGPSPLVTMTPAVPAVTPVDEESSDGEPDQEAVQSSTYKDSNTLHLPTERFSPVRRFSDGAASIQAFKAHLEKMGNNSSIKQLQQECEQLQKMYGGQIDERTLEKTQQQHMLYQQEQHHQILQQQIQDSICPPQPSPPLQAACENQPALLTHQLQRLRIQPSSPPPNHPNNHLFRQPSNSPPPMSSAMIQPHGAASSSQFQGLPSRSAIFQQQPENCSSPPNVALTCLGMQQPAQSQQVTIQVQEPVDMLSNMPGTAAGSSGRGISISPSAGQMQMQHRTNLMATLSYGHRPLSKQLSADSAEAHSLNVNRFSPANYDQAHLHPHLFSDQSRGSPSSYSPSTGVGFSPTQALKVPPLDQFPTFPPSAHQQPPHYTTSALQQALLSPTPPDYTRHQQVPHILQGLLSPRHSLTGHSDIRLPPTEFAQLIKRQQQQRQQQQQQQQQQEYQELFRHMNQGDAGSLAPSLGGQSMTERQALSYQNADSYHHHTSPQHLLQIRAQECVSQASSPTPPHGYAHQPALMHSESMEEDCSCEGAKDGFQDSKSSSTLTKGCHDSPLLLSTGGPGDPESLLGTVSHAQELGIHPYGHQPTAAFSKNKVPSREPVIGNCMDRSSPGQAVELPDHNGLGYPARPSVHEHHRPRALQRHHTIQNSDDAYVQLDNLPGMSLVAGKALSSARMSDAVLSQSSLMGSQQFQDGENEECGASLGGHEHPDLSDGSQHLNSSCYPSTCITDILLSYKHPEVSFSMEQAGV

[17] = biological target: T17, panel of 370 protein kinases (Homo sapiens, UniProt Q86UX6); details: 2 h, kinase STK32C/YANK3; read-out: % Enzyme Activity (relative to DMSO controls)
T17 construct: purchased Reaction Biology Corporation (assay service)
T17 sequence (Q86UX6 whole entry): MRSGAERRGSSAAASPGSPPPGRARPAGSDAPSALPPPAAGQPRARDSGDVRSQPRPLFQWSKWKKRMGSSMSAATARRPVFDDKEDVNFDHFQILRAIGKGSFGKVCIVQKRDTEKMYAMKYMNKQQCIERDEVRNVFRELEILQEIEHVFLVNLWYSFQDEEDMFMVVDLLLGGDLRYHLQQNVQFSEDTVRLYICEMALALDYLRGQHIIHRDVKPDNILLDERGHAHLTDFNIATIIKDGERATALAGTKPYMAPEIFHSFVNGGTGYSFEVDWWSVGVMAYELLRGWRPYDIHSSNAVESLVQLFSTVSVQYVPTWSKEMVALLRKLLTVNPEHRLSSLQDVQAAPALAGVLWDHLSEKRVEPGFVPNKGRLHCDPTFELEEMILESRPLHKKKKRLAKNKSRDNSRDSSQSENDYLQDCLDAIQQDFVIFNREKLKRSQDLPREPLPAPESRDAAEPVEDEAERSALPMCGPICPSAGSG

[18] = biological target: T18, panel of 370 protein kinases (Homo sapiens, UniProt P54764); details: 2 h, kinase EPHA4; read-out: % Enzyme Activity (relative to DMSO controls)
T18 construct: purchased Reaction Biology Corporation (assay service)

[19] = biological target: T19, panel of 370 protein kinases (Homo sapiens, UniProt Q12852); details: kinase DLK/MAP3K12
T19 construct: purchased Reaction Biology Corporation (assay service)
T19 sequence (Q12852 whole entry): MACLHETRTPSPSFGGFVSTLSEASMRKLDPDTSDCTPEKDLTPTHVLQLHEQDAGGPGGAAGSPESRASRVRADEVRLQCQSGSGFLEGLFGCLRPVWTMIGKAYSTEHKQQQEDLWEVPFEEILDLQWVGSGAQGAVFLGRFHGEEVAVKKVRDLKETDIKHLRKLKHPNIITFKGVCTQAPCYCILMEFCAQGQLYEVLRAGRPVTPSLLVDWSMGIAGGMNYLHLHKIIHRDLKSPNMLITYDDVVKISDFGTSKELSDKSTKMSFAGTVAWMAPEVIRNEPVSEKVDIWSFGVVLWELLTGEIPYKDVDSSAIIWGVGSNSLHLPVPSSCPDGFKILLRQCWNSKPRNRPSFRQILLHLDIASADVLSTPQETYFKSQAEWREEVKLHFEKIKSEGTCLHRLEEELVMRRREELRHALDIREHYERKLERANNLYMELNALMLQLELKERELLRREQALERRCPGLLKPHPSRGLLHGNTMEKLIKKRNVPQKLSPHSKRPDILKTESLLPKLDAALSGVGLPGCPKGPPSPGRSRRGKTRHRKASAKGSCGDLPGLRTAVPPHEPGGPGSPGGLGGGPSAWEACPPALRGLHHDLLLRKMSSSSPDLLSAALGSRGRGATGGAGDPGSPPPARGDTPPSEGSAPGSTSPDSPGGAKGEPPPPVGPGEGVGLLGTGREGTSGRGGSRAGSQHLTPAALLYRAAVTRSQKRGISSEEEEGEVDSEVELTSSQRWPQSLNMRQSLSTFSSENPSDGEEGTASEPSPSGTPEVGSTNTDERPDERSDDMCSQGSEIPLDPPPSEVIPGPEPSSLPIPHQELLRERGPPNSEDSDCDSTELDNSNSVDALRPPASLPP

[20] = biological target: T20, panel of 370 protein kinases (Homo sapiens, UniProt P00519); details: 2 h, kinase ABL1; read-out: % Enzyme Activity (relative to DMSO controls)
T20 construct: purchased Reaction Biology Corporation (assay service)

[21] = biological target: T21, panel of 370 protein kinases (Homo sapiens, UniProt O60285); details: kinase ARK5/NUAK1
T21 construct: purchased Reaction Biology Corporation (assay service)
T21 sequence (O60285 whole entry): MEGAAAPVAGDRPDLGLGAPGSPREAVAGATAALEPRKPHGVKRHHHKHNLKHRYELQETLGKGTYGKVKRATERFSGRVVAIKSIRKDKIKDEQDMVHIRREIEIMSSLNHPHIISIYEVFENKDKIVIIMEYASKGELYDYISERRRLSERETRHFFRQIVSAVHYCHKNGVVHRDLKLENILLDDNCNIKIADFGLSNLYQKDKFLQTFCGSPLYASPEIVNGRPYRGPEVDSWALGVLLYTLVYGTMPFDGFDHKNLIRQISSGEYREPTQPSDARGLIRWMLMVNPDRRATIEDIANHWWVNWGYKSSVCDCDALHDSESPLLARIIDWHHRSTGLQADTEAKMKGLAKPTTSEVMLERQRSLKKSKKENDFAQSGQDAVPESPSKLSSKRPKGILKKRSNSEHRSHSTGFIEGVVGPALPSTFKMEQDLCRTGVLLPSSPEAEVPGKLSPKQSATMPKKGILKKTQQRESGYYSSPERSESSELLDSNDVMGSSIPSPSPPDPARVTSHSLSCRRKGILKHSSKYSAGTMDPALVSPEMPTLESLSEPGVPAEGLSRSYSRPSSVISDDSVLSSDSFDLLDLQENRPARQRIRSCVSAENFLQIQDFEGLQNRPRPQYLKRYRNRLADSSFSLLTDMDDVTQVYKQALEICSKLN

[22] = biological target: T22, panel of 370 protein kinases (Homo sapiens, UniProt P29376); details: 2 h, kinase TYK1/LTK; read-out: % Enzyme Activity (relative to DMSO controls)
T22 construct: purchased Reaction Biology Corporation (assay service)

In the case of CCN1CCN(C(=O)c2ccc(Nc3ncc(F)c(-c4ccc5nc(N(C)C)sc5c4)n3)nc2)CC1 [YK-2-69], the remaining activity at 1 µM [1] is reported as 93%, the remaining activity at 1 µM [2] is reported as 91.2% and the remaining activity at 1 µM [3] is reported as 94.9%. It also gave a remaining activity at 1 µM [4] of 88.5%, a remaining activity at 1 µM [5] of 85.9% and a remaining activity at 1 µM [6] of 89.2%. For the same molecule, the “% Enzyme Activity (relative to DMSO controls)” value [7] was 103.96% and 100.40%, the remaining activity at 1 µM [8] was 106% and the remaining activity at 1 µM [9] was 99.7%. For the same molecule, the remaining activity at 1 µM [10] was 97.4%, the remaining activity at 1 µM [11] was 104% and the remaining activity at 1 µM [12] was 109%. For the same molecule, the remaining activity at 1 µM [13] was 75.7%, the remaining activity at 1 µM [14] was 96.6% and the remaining activity at 1 µM [15] was 98.1%. The “% Enzyme Activity (relative to DMSO controls)” value [16] was 100.12% and 97.59%, the remaining activity at 1 µM [17] was 96.8% and the remaining activity at 1 µM [18] was 70.2%. The “% Enzyme Activity (relative to DMSO controls)” value [19] was 98.52% and 93.92%, the remaining activity at 1 µM [20] was 85% and the “% Enzyme Activity (relative to DMSO controls)” value [21] was 87.08% and 86.46%. For the same molecule, the remaining activity at 1 µM [22] was 109%.
